Data: ChEMBL document CHEMBL3399957, “Synthesis and SAR studies of analogues of 4-(3,3-dimethyl-butyrylamino)-3,5-difluoro-N-thiazol-2-yl-benzamide (Lu AA41063) as adenosine A2A receptor ligands with improved aqueous solubility” (Bioorg Med Chem Lett, 2015)
Values after ≈ are worked out from the molar mass of the structure shown.

Key:
Adenosine receptor A2a [1] = target: T1, Adenosine receptor A2a (Homo sapiens, UniProt P29274); test: Antagonist activity at human adenosine A2A receptor
[2] = Intrinsic clearance in human liver microsomes; assay type: ADME; settings: read-out: CLH (converted)
[3] = Aqueous solubility of the compound at pH 7.4; assay type: physicochemical; settings: buffer
Cytochrome P450 3A4 = Cytochrome P450 3A4 (Homo sapiens, UniProt P08684); test: Inhibition of CYP3A4 (unknown origin); assay type: ADME
Cytochrome P450 2C19 = Cytochrome P450 2C19 (Homo sapiens, UniProt P33261); test: Inhibition of CYP2C19 (unknown origin); assay type: ADME
Cytochrome P450 2D6 = Cytochrome P450 2D6 (Homo sapiens, UniProt P10635); test: Inhibition of CYP2D6 (unknown origin); assay type: ADME
Cytochrome P450 2C9 = Cytochrome P450 2C9 (Homo sapiens, UniProt P11712); test: Inhibition of CYP2C9 (unknown origin); assay type: ADME
Cytochrome P450 1A2 = target: T2, Cytochrome P450 1A2 (Homo sapiens, UniProt P05177); test: Inhibition of CYP1A2 (unknown origin); assay type: ADME
T2 sequence (P05177 whole entry): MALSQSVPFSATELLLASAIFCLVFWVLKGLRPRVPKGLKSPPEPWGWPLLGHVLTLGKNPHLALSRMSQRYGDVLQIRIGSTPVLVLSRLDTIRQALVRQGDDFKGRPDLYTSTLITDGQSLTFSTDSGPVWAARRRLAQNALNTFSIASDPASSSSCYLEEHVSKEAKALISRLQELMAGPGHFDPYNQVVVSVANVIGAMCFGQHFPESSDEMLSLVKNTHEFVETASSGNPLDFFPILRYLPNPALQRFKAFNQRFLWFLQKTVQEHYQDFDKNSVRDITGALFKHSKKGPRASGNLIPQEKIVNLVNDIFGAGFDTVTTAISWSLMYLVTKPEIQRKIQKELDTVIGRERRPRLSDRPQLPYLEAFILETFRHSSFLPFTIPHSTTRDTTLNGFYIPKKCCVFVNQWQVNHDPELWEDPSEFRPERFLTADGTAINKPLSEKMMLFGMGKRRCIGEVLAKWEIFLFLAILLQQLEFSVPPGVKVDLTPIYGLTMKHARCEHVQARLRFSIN

[4] = Aqueous solubility of the compound; assay type: physicochemical; settings: buffer
Adenosine receptor A2a [5] = target: T1, Adenosine receptor A2a; test: Displacement of radioligand from human adenosine A2A receptor at 1000 nM relative to control

T1 sequence (P29274 whole entry): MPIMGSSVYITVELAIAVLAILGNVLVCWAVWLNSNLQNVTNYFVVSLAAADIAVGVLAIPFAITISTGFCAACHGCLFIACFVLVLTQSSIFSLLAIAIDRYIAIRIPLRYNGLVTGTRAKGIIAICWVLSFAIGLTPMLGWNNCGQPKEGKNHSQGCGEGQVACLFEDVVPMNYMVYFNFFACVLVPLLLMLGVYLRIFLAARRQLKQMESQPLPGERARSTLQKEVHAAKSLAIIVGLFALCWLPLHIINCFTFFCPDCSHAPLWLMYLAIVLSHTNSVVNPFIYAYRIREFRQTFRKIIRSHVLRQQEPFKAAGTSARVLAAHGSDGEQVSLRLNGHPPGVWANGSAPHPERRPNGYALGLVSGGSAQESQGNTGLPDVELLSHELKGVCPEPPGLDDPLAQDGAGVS
Sequence of Cytochrome P450 2D6 (P10635 whole entry): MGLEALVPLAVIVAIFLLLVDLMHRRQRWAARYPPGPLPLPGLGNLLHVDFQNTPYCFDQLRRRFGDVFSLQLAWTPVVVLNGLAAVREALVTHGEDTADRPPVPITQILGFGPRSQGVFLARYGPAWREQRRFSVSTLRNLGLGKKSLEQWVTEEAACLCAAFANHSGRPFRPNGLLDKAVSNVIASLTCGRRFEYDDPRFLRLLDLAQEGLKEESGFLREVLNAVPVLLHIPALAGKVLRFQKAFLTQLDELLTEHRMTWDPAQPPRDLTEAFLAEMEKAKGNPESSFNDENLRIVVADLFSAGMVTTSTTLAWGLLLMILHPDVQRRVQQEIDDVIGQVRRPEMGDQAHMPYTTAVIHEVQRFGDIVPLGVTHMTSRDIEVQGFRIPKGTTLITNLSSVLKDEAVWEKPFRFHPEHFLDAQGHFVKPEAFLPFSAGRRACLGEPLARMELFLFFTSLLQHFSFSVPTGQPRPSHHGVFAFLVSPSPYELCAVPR
Sequence of Cytochrome P450 3A4 (P08684 whole entry): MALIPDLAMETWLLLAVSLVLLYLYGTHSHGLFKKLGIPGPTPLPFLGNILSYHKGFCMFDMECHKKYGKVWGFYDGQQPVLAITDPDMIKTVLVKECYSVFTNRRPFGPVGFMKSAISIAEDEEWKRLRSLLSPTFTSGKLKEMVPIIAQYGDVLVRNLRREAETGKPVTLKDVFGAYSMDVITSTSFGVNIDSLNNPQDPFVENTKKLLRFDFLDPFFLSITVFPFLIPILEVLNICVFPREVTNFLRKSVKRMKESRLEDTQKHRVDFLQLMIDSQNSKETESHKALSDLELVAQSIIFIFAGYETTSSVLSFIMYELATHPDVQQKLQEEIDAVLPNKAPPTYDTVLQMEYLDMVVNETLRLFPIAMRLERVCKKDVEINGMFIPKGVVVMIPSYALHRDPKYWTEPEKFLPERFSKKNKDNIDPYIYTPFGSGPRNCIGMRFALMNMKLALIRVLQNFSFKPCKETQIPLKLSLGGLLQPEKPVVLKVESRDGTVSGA
Sequence of Cytochrome P450 2C9 (P11712 whole entry): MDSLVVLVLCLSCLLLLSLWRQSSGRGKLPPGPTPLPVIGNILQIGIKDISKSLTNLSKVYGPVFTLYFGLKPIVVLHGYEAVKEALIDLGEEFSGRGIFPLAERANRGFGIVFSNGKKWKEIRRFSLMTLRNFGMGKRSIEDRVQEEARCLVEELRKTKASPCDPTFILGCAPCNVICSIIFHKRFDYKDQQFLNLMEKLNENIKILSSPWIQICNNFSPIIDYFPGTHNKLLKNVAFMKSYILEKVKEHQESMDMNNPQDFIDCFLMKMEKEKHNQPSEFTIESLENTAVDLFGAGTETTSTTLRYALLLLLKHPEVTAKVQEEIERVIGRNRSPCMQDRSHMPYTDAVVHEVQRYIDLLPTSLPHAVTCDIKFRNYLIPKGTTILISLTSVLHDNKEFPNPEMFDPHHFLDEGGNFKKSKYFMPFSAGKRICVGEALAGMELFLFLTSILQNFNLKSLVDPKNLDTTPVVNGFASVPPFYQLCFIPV
Sequence of Cytochrome P450 2C19 (P33261 whole entry): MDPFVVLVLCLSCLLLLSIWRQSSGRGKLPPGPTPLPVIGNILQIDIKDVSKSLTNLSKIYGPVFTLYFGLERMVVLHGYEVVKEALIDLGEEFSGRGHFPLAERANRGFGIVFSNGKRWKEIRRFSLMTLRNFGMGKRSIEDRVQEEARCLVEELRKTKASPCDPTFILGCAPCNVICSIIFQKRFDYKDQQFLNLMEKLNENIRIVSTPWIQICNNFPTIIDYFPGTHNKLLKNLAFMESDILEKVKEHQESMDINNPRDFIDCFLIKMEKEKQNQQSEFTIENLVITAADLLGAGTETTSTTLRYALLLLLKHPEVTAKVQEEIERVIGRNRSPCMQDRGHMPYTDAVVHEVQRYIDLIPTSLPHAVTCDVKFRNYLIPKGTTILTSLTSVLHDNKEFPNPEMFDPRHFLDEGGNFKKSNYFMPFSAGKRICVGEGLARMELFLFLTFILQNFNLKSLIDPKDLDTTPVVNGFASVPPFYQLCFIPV

Ki (Adenosine receptor A2a [1])	Compound	also measured
240 nM	CCN(CC)CCCCCC(=O)Nc1ccc(C(=O)Nc2nccs2)cc1	
130 nM	CCN(CC)CCCCCCCC(=O)Nc1ccc(C(=O)Nc2nccs2)cc1	
830 nM	CCN(CC)CCCCC(=O)Nc1ccc(C(=O)Nc2nccs2)cc1	
730 nM	CC(C)CCNc1ccc(C(=O)Nc2nccs2)cc1	
110 nM	CC(CCN1CCOCC1)CC(=O)Nc1ccc(C(=O)Nc2nccs2)cc1 (centres undefined)	CLint scaled [2]: 10.3 mL/min/kg; solubility [3]: 116 µg/mL (≈ 288 µM); IC50 (Cytochrome P450 3A4): > 40000 nM; IC50 (Cytochrome P450 2C19): > 40000 nM; IC50 (Cytochrome P450 2D6): 18000 nM; IC50 (Cytochrome P450 2C9): > 40000 nM; IC50 (Cytochrome P450 1A2): > 40000 nM
300 nM	CC(C)(C)CC(=O)Nc1ccc(C(=O)Nc2nccs2)nc1	solubility [4]: 10 µg/mL (≈ 31.4 µM)
59 nM	CC(C)CC(=O)Nc1ccc(C(=O)Nc2nccs2)cc1	
67 nM	O=C(CC1CCCC1)Nc1ccc(C(=O)Nc2nccs2)cc1	
110 nM	CCN(CC)CCC(C)CC(=O)Nc1ccc(C(=O)Nc2nccs2)cc1 (centres undefined)	
	CC(C)(C)CC(=O)Nc1ccc(C(=O)Nc2nccs2)cn1	inhibition (Adenosine receptor A2a [5]): 30%
> 6000 nM	CC(C)(C)CC(=O)Nc1ccc(CNc2nccs2)cc1	
> 2100 nM	O=C(CC1CCNC1)Nc1ccc(C(=O)Nc2nccs2)cc1 (centres undefined)	
1100 nM	CC(C)(O)CC(=O)Nc1ccc(C(=O)Nc2nccs2)cc1	
6600 nM	O=C(CC1CCCN1)Nc1ccc(C(=O)Nc2nccs2)cc1 (centres undefined)	
	Cc1cc(C(=O)Nc2nccs2)ccc1NC(=O)CN(C)C	inhibition (Adenosine receptor A2a [5]): 1%
67 nM	Cc1cc(C(=O)Nc2nccs2)ccc1NC(=O)CC(C)(C)C	
